Assays:
[1] = system: Pythium ultimum; test: Pythium ultimum / liquid culture (seedling damping off); type: cell-based; settings: Globisporangium ultimum, potato dextrose broth, 24° C., inhibition of growth determined photometrically 2-3 days after application, read-out: disease control
Description: 8 Pythium ultimum/Liquid Culture (Seedling Damping Off) Mycelia fragments and oospores of a newly grown liquid culture of the fungus were directly mixed into nutrient broth (potato dextrose broth). After placing a DMSO solution of test compound into a 96-well format microtiter plate at an application rate of 200 ppm, the nutrient broth containing the fungal mycelia/spore mixture was added. The test plates were incubated at 24° C. and the inhibition of growth was determined photometrically 2-3 days after application.

[2] = system: Mycosphaerella graminicola (Septoria tritici); test: Mycosphaerella graminicola (Septoria tritici) / liquid culture (Septoria blotch); type: cell-based; settings: Zymoseptoria tritici, PDB, 24° C., inhibition of growth determined photometrically 4-5 days after application, read-out: disease control
Description: (§1) 12 Mycosphaerella graminicola (Septoria tritici)/Liquid Culture (Septoria Blotch): Conidia of the fungus from cryogenic storage were directly mixed into nutrient broth (PDB potato dextrose broth). After placing a DMSO solution of test compound into a 96-well microtiter plate at an application rate of 200 ppm, the nutrient broth containing the fungal spores was added. The test plates were incubated at 24° C. and the inhibition of growth was determined photometrically 4-5 days after application.

[3] = system: Glomerella lagenarium (Colletotrichum Lagenarium); test: Glomerella lagenarium (Colletotrichum lagenarium) / liquid culture (anthracnose); type: cell-based; settings: Colletotrichum orbiculare, PDB, 24° C., inhibition of growth measured photometrically 3-4 days after application, read-out: disease control
Description: as §1, with “10 Glomerella lagenarium (Colletotrichum Lagenarium)/Liquid” for “12 Mycosphaerella graminicola (Septoria tritici)/Liquid”, “(Anthracnose):” for “(Septoria Blotch):”, “measured” for “determined”, “3-4” for “4-5”

[4] = system: Gaeumannomyces Graminis; test: Gaeumannomyces graminis / liquid culture (take-all of cereals); type: cell-based; settings: PDB, 24° C., inhibition of growth determined photometrically 4-5 days after application, read-out: disease control
Description: 13 Gaeumannomyces Graminis/Liquid Culture (Take-all of Cereals): Mycelial fragments of the fungus from cryogenic storage were directly mixed into nutrient broth (PDB potato dextrose broth). […] The test plates were incubated at 24° C. and the inhibition of growth was determined photometrically 4-5 days after application.

[5] = system: Thanatephorus cucumeris (Rhizoctonia solani); test: Thanatephorus cucumeris (Rhizoctonia solani) / liquid culture (foot rot, damping-off); type: cell-based; settings: PDB, 24° C., inhibition of growth determined photometrically 3-4 days after application, read-out: disease control
Description: 16 Thanatephorus cucumeris (Rhizoctonia solani)/liquid culture (foot rot, damping-off): Mycelia fragments of a newly grown liquid culture of the fungus were directly mixed into nutrient broth (PDB potato dextrose broth). After placing a DMSO solution of the test compounds into a 96-well microtiter plate at an application rate of 200 ppm, the nutrient broth containing the fungal material was added. The test plates were incubated at 24° C. and the inhibition of growth was determined photometrically 3-4 days after application.

[6] = system: Plasmopara viticola; test: whole plant or invertebrate; type: in vivo; settings: foliar, read-out: disease control
[7] = system: Fusarium culmorum; test: microbe, parasite or virus in culture; type: cell-based; settings: read-out: disease control
[8] = system: Monographella nivalis (Microdochium nivale); test: Monographella nivalis (Microdochium nivale) / liquid culture (foot rot cereals); type: cell-based; settings: PDB, 24° C., inhibition of growth determined photometrically 4-5 days after application, read-out: disease control
Description: as §1, with “14 Monographella nivalis (Microdochium nivale)/liquid culture (foot rot cereals):” for “12 Mycosphaerella graminicola (Septoria tritici)/Liquid Culture (Septoria Blotch):”

[9] = system: Botryotinia fuckeliana (Botrytis cinerea); test: Botryotinia fuckeliana (Botrytis cinerea) / liquid culture (gray mould); type: cell-based; settings: Vogels broth, 24° C., inhibition of growth determined photometrically 3-4 days after application, read-out: disease control
Description: as §1, with “9 Botryotinia fuckeliana (Botrytis cinerea)/liquid culture (Gray mould):” for “12 Mycosphaerella graminicola (Septoria tritici)/Liquid Culture (Septoria Blotch):”, “(Vogels” for “(PDB potato dextrose”, “3-4” for “4-5”

[10] = system: Mycosphaerella arachidis (Cercospora arachidicola); test: Mycosphaerella arachidis (Cercospora arachidicola) / liquid culture (early leaf spot); type: cell-based; settings: PDB, 24° C., inhibition of growth determined photometrically 4-5 days after application, read-out: disease control
Description: as §1, with “11” for “12”, “arachidis (Cercospora arachidicola)/Liquid” for “graminicola (Septoria tritici)/Liquid”, “(Early Leaf Spot):” for “(Septoria Blotch):”

[11] = system: Sclerotinia sclerotiorum; test: Sclerotinia sclerotiorum / liquid culture (cottony rot); type: cell-based; settings: PDB, 24° C., inhibition of growth determined visually 3-4 days after application, read-out: disease control
Description: 17 Sclerotinia sclerotiorum/liquid culture (cottony rot): Mycelia fragments of a newly grown liquid culture of the fungus were directly mixed into nutrient broth (PDB potato dextrose broth). After placing a (DMSO) solution of the test compounds into a microtiter plate (96-well format) the nutrient broth containing the fungal material was added. The test plates were incubated at 24° C. and the inhibition of growth was determined visually 3-4 days after application.

Row | SMILES | inhibition of growth at 200 ppm [1] [%] | inhibition of growth at 200 ppm [2] [%] | inhibition of growth at 200 ppm [3] [%] | inhibition of growth at 200 ppm [4] [%] | melting point [°C] | inhibition of growth at 200 ppm [5] [%] | pest or weed control at 200 ppm [6] [%] | inhibition of growth at 200 ppm [7] [%] | inhibition of growth at 200 ppm [8] [%] | inhibition of growth at 200 ppm [9] [%] | inhibition of growth at 200 ppm [10] [%] | inhibition of growth at 200 ppm [11] [%]
1 | Cc1ccc(-c2cc3c(cc2Cl)COB3O)cc1C [Compound 2] | ≥ 80 | ≥ 80 | ≥ 80 | ≥ 80 | 155 to 165 | – | – | – | – | – | – | –
2 | Cc1ccccc1-c1cc2c(cc1Cl)COB2O [Compound 4] | ≥ 80 | ≥ 80 | ≥ 80 | – | – | ≥ 80 | ≥ 80 | – | – | – | – | –
3 | Cc1cccc(-c2cc3c(cc2Cl)COB3O)c1 [Compound 5] | ≥ 80 | ≥ 80 | ≥ 80 | – | – | ≥ 80 | – | ≥ 80 | – | – | – | –
4 | Cc1ccc(-c2cc3c(cc2Cl)COB3O)cc1 [Compound 6] | ≥ 80 | ≥ 80 | ≥ 80 | – | – | ≥ 80 | – | ≥ 80 | – | – | – | –
5 | COc1ccc(-c2cc3c(cc2Cl)COB3O)cc1 [Compound 8, 5-chloro-1-hydroxy-6-(4-methoxyphenyl)-3H-2,1-benzoxaborole] | ≥ 80 | ≥ 80 | ≥ 80 | ≥ 80 | 105 to 115 | ≥ 80 | – | – | ≥ 80 | – | – | –
6 | OB1OCc2cc(Cl)c(-c3ccc(O)cc3)cc21 [Compound 11] | ≥ 80 | – | – | – | – | – | ≥ 80 | – | ≥ 80 | – | – | –
7 | COc1ccc(OC)c(-c2cc3c(cc2Cl)COB3O)c1 [Compound 12] | ≥ 80 | ≥ 80 | ≥ 80 | ≥ 80 | 95 to 115 | – | ≥ 80 | – | ≥ 80 | – | – | –
8 | Cc1nc2c(-c3cc4c(cc3Cl)COB4O)cccc2s1 [Compound 13, 4-(5-chloro-1-hydroxy-3H-2,1-benzoxaborol-6-yl)-2-methyl-1,3-benzothiazole] | ≥ 80 | ≥ 80 | ≥ 80 | ≥ 80 | – | – | – | – | ≥ 80 | – | – | –
9 | Cc1nc2cc(-c3cc4c(cc3Cl)COB4O)ccc2s1 [Compound 14, 5-(5-chloro-1-hydroxy-3H-2,1-benzoxaborol-6-yl)-2-methyl-1,3-benzothiazole] | ≥ 80 | – | – | – | – | – | ≥ 80 | – | ≥ 80 | – | – | –
10 | Cc1nc2cccc(-c3cc4c(cc3Cl)COB4O)c2s1 [Compound 15, 7-(5-chloro-1-hydroxy-3H-2,1-benzoxaborol-6-yl)-2-methyl-1,3-benzothiazole] | ≥ 80 | – | – | – | – | – | ≥ 80 | – | ≥ 80 | – | – | –
11 | OB1OCc2cc(Cl)c(-c3cccc4ncoc34)cc21 [Compound 16] | ≥ 80 | ≥ 80 | ≥ 80 | ≥ 80 | – | – | – | – | ≥ 80 | – | – | –
12 | OB1OCc2cc(Cl)c(-c3cc(Br)ccc3-n3cccn3)cc21 [Compound 17] | ≥ 80 | ≥ 80 | ≥ 80 | ≥ 80 | – | – | – | – | ≥ 80 | – | – | –
13 | OB1OCc2cc(Cl)c(-c3cc(-n4cccn4)ccc3Br)cc21 [Compound 18] | ≥ 80 | ≥ 80 | ≥ 80 | ≥ 80 | – | – | – | – | ≥ 80 | – | – | –
14 | CC(=O)Nc1ccc(F)cc1-c1cc2c(cc1Cl)COB2O [Compound 19, N-[2-(5-chloro-1-hydroxy-3H-2,1-benzoxaborol-6-yl)-4-fluoro-phenyl]acetamide] | ≥ 80 | ≥ 80 | – | – | – | – | – | ≥ 80 | – | – | – | –
15 | CC(=O)Nc1ccc(F)c(-c2cc3c(cc2Cl)COB3O)c1 [Compound 20, N-[3-(5-chloro-1-hydroxy-3H-2,1-benzoxaborol-6-yl)-4-fluoro-phenyl]acetamide] | ≥ 80 | ≥ 80 | ≥ 80 | ≥ 80 | – | – | – | ≥ 80 | ≥ 80 | ≥ 80 | ≥ 80 | ≥ 80
16 | OB1OCc2cc(Cl)c(-c3cccc4[nH]c(-c5cscn5)nc34)cc21 [Compound 21] | ≥ 80 | – | – | – | – | – | – | – | – | ≥ 80 | ≥ 80 | –
17 | Cc1cc(C2CC2)nc(Nc2ccccc2-c2cc3c(cc2Cl)COB3O)n1 [Compound 22] | – | – | – | – | – | – | – | – | ≥ 80 | ≥ 80 | – | –
18 | Cc1cc(C2CC2)nc(Nc2cccc(-c3cc4c(cc3Cl)COB4O)c2)n1 [Compound 23] | – | – | – | – | – | – | – | – | ≥ 80 | – | – | –
19 | Cc1cc(C2CC2)nc(Nc2ccc(-c3cc4c(cc3Cl)COB4O)cc2)n1 [Compound 24] | – | – | – | – | – | – | – | – | ≥ 80 | – | – | –
20 | COc1ccccc1-c1cc2c(cc1F)COB2O [Compound 25] | ≥ 80 | ≥ 80 | ≥ 80 | – | 50 to 65 | – | ≥ 80 | ≥ 80 | ≥ 80 | – | ≥ 80 | ≥ 80
21 | COc1ccc(-c2cc3c(cc2F)COB3O)cc1 [Compound 26] | ≥ 80 | ≥ 80 | ≥ 80 | – | – | – | – | ≥ 80 | ≥ 80 | – | – | –
22 | COc1cccc(-c2cc3c(cc2F)COB3O)c1 [Compound 27, 5-fluoro-6-(3-methoxy-phenyl)-3H-benzo[c][1,2] oxaborol-1-ol] | ≥ 80 | ≥ 80 | ≥ 80 | – | 118 to 120 | – | ≥ 80 | ≥ 80 | ≥ 80 | – | ≥ 80 | ≥ 80
23 | N#Cc1ccc(-c2cc3c(cc2F)COB3O)cc1 [Compound 29] | ≥ 80 | – | – | – | 270 to 272 | – | – | – | ≥ 80 | – | – | –
24 | COC(=O)c1cc(-c2cc3c(cc2Cl)COB3O)ccc1OC [Compound 30] | ≥ 80 | – | – | – | – | – | – | – | ≥ 80 | – | – | –
25 | OB1OCc2cc(F)c(-c3ccc(Cl)c(Cl)c3)cc21 [Compound 34] | – | – | – | – | 243 to 245 | – | – | – | – | – | – | –
